Results: the supplement of paper PMC11061612

Assays:
Palbociclib = compound: CC(=O)c1c(C)c2cnc(Nc3ccc(N4CCNCC4)cn3)nc2n(C2CCCC2)c1=O [Palbociclib]; details: max 10 µM
Procedure, shortened: (§1)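 Viability was measured with CellTiter-Glo 2.0 luminescence after 72 hours of dosing at a final DMSO of typically 0.2%, and scaled between blank-well and DMSO-well means. Beforehand, cancer cell lines sat 24 hours at 37°C and 5% CO2 in 1536-well plates in 7.5 μl DMEM/F12 or RPMI with 10% FBS. A non-linear mixed effects model fitted two-parameter logistic curves to the dose responses. The single-agent IC50 comes from these fits.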

Taselisib = compound: Cc1nc(-c2cn3c(n2)-c2ccc(-c4cnn(C(C)(C)C(N)=O)c4)cc2OCC3)n(C(C)C)n1 [Taselisib]; details: max 10 µM
Procedure, shortened: as §1

Prexasertib = compound: COc1cccc(OCCCN)c1-c1cc(Nc2cnc(C#N)cn2)n[nH]1 [Prexasertib]; details: max 1 µM
Procedure, shortened: as §1

AZD1390 = compound: CC(C)n1c(=O)n(C)c2cnc3cc(F)c(-c4ccc(OCCCN5CCCCC5)nc4)cc3c21 [AZD1390]; details: max 0.3 µM
Procedure, shortened: as §1

Crizotinib = compound: C[C@@H](Oc1cc(-c2cnn(C3CCNCC3)c2)cnc1N)c1c(Cl)ccc(F)c1Cl [Crizotinib]; details: max 10 µM
Procedure, shortened: as §1

Paclitaxel = compound: CC(=O)O[C@H]1C(=O)[C@@]2(C)[C@H]([C@H](OC(=O)c3ccccc3)[C@]3(O)C[C@H](OC(=O)[C@H](O)[C@@H](NC(=O)c4ccccc4)c4ccccc4)C(C)=C1C3(C)C)[C@]1(OC(C)=O)CO[C@@H]1C[C@@H]2O [Paclitaxel]; details: max 3 µM
Procedure, shortened: as §1

Alisertib = compound: COc1cc(Nc2ncc3c(n2)-c2ccc(Cl)cc2C(c2c(F)cccc2OC)=NC3)ccc1C(=O)O [Alisertib]; details: max 10 µM
Procedure, shortened: as §1

Doxorubicin = compound: COc1cccc2c1C(=O)c1c(O)c3c(c(O)c1C2=O)C[C@@](O)(C(=O)CO)C[C@@H]3O[C@H]1C[C@H](N)[C@H](O)[C@H](C)O1 [Doxorubicin]; details: max 1 µM
Procedure, shortened: as §1

Carboplatin = compound: C1CC(C1)(C(=O)[O-])C(=O)[O-].N.N.[Pt+2] [Carboplatin]; details: max 10 µM
Procedure, shortened: as §1

Venetoclax = compound: CC1(C)CCC(CN2CCN(c3ccc(C(=O)NS(=O)(=O)c4ccc(NCC5CCOCC5)c([N+](=O)[O-])c4)c(Oc4cnc5[nH]ccc5c4)c3)CC2)=C(c2ccc(Cl)cc2)C1 [Venetoclax]; details: max 1 µM
Procedure, shortened: as §1

Gemcitabine = compound: Nc1ccn([C@@H]2O[C@H](CO)[C@@H](O)C2(F)F)c(=O)n1 [Gemcitabine]; details: max 0.3 µM
Procedure, shortened: as §1

SN-38 = compound: CCc1c2c(nc3ccc(O)cc13)-c1cc3c(c(=O)n1C2)COC(=O)[C@]3(O)CC [SN-38]; details: max 0.3 µM
Procedure, shortened: as §1

SG3199 = compound: CC1=CN2[C@@H](C1)C=NC3=CC(=C(C=C3C2=O)OC)OCCCCCOC4=C(C=C5C(=C4)N=C[C@@H]6CC(=CN6C5=O)C)OC [SG3199]; details: max 0.001 µM
Procedure, shortened: as §1

Gefitinib = compound: COc1cc2ncnc(Nc3ccc(F)c(Cl)c3)c2cc1OCCCN1CCOCC1 [Gefitinib]; details: max 10 µM
Procedure, shortened: as §1

AZD6738 = compound: C[C@@H]1COCCN1C2=NC(=NC(=C2)C3(CC3)[S@](=N)(=O)C)C4=C5C=CNC5=NC=C4 [AZD6738]; details: max 10 µM
Procedure, shortened: as §1

5-Fluorouracil = compound: O=c1[nH]cc(F)c(=O)[nH]1 [5-Fluorouracil]; details: max 20 µM
Procedure, shortened: as §1

AZD5363 = compound: C1CN(CCC1(C(=O)N[C@@H](CCO)C2=CC=C(C=C2)Cl)N)C3=NC=NC4=C3C=CN4 [AZD5363]; details: max 10 µM
Procedure, shortened: as §1

AZD2811 = compound: CCN(CCO)CCCOc1ccc2c(Nc3cc(CC(=O)Nc4cccc(F)c4)[nH]n3)ncnc2c1 [AZD2811]; details: max 1 µM
Procedure, shortened: as §1

AZD1775 = compound: C=CCn1c(=O)c2cnc(Nc3ccc(N4CCN(C)CC4)cc3)nc2n1-c1cccc(C(C)(C)O)n1 [AZD1775]; details: max 3 µM
Procedure, shortened: as §1

[1] = compound: O=C(Nc1ccc2[nH]nc(-c3ccncc3)c2c1)[C@@H]1CCN(CC(=O)N2CCN(c3ccc(-c4ncccn4)cc3)CC2)C1; details: max 5 µM
Procedure, shortened: as §1

AZD4320 = compound: CN(CC[C@H](CSC1=CC=CC=C1)NC2=C(C=C(C=C2)S(=O)(=O)NC(=O)C3=CC=C(C=C3)N4CCC(CC4)[C@H](C5=CC=CC=C5C6=CC=C(C=C6)Cl)O)S(=O)(=O)C(F)(F)F)CCO [AZD4320]; details: max 1 µM
Procedure, shortened: as §1

AZD5991 = compound: Cc1c2c(nn1C)CSCc1cc(n(C)n1)CSc1cc(c3ccccc3c1)OCCCc1c(C(=O)O)n(C)c3c-2c(Cl)ccc13 [AZD5991]; details: max 1 µM
Procedure, shortened: as §1

SRA737 = compound: N#Cc1cnc(Nc2cc(NC[C@H]3CNCCO3)c(C(F)(F)F)cn2)cn1 [SRA737]; details: max 10 µM
Procedure, shortened: as §1

AZD0156 = compound: CN(C)CCCOc1ccc(-c2ccc3ncc4c(c3c2)n(C2CCOCC2)c(=O)n4C)cn1 [AZD0156]; details: max 3 µM
Procedure, shortened: as §1

Lapatinib = compound: CS(=O)(=O)CCNCc1ccc(-c2ccc3ncnc(Nc4ccc(OCc5cccc(F)c5)c(Cl)c4)c3c2)o1 [Lapatinib]; details: max 10 µM
Procedure, shortened: as §1

Etoposide = compound: COc1cc([C@@H]2c3cc4c(cc3[C@@H](O[C@@H]3O[C@@H]5CO[C@@H](C)O[C@H]5[C@H](O)[C@H]3O)[C@H]3COC(=O)[C@H]23)OCO4)cc(OC)c1O [Etoposide]; details: max 10 µM
Procedure, shortened: as §1

Selumetinib = compound: Cn1cnc2c(F)c(Nc3ccc(Br)cc3Cl)c(C(=O)NOCCO)cc21 [Selumetinib]; details: max 10 µM
Procedure, shortened: as §1

Trametinib = compound: CC(=O)Nc1cccc(-n2c(=O)n(C3CC3)c(=O)c3c(Nc4ccc(I)cc4F)n(C)c(=O)c(C)c32)c1 [Trametinib]; details: max 1 µM
Procedure, shortened: as §1

MK-2206 = compound: NC1(c2ccc(-c3nc4ccn5c(=O)[nH]nc5c4cc3-c3ccccc3)cc2)CCC1 [MK-2206]; details: max 10 µM
Procedure, shortened: as §1

AZD8186 = compound: C[C@@H](Nc1cc(F)cc(F)c1)c1cc(C(=O)N(C)C)cc2c(=O)cc(N3CCOCC3)oc12 [AZD8186]; details: max 10 µM
Procedure, shortened: as §1

Savolitinib = compound: C[C@@H](c1ccc2nccn2c1)n1nnc2ncc(-c3cnn(C)c3)nc21 [Savolitinib]; details: max 1 µM
Procedure, shortened: as §1

AZD5153 = compound: COc1nnc2ccc(N3CCC(c4ccc(OCCN5CCN(C)C(=O)[C@H]5C)cc4)CC3)nn12 [AZD5153]; details: max 1 µM
Procedure, shortened: as §1

Olaparib = compound: O=C(c1cc(Cc2n[nH]c(=O)c3ccccc23)ccc1F)N1CCN(C(=O)C2CC2)CC1 [Olaparib]; details: max 10 µM
Procedure, shortened: as §1

Dasatinib = compound: CC1=C(C(=CC=C1)Cl)NC(=O)C2=CN=C(S2)NC3=CC(=NC(=N3)C)N4CCN(CC4)CCO [Dasatinib]; details: max 2 µM
Procedure, shortened: as §1

AZD7648 = compound: Cc1cc2ncnn2cc1Nc1ncc2c(n1)n(C1CCOCC1)c(=O)n2C [AZD7648]; details: max 10 µM
Procedure, shortened: as §1

Cell Line | IC50, cell viability 72 h (Palbociclib) | IC50, cell viability 72 h (Taselisib) | IC50, cell viability 72 h (Prexasertib) | IC50, cell viability 72 h (AZD1390) | IC50, cell viability 72 h (Crizotinib) | IC50, cell viability 72 h (Paclitaxel) | IC50, cell viability 72 h (Alisertib) | IC50, cell viability 72 h (Doxorubicin) | IC50, cell viability 72 h (Carboplatin) | IC50, cell viability 72 h (Venetoclax) | IC50, cell viability 72 h (Gemcitabine) | IC50, cell viability 72 h (SN-38) | IC50, cell viability 72 h (SG3199) | IC50, cell viability 72 h (Gefitinib) | IC50, cell viability 72 h (AZD6738) | IC50, cell viability 72 h (5-Fluorouracil) | IC50, cell viability 72 h (AZD5363) | IC50, cell viability 72 h (AZD2811) | IC50, cell viability 72 h (AZD1775) | IC50, cell viability 72 h [1] | IC50, cell viability 72 h (AZD4320) | IC50, cell viability 72 h (AZD5991) | IC50, cell viability 72 h (SRA737) | IC50, cell viability 72 h (AZD0156) | IC50, cell viability 72 h (Lapatinib) | IC50, cell viability 72 h (Etoposide) | IC50, cell viability 72 h (Selumetinib) | IC50, cell viability 72 h (Trametinib) | IC50, cell viability 72 h (MK-2206) | IC50, cell viability 72 h (AZD8186) | IC50, cell viability 72 h (Savolitinib) | IC50, cell viability 72 h (AZD5153) | IC50, cell viability 72 h (Olaparib) | IC50, cell viability 72 h (Dasatinib) | IC50, cell viability 72 h (AZD7648)
OVMIU (Ovarian Carcinoma) | > 10000 nM | 148 nM | 267 nM | > 300 nM | > 10000 nM | 77.7 nM | 7010 nM | 801 nM | > 10000 nM | > 1000 nM | > 300 nM | > 300 nM | > 1 nM | 3200 nM | > 10000 nM | > 20000 nM | > 10000 nM | > 1000 nM | 1720 nM | 3190 nM | > 1000 nM | > 1000 nM | > 10000 nM | > 3000 nM | 3240 nM | > 10000 nM | > 10000 nM | 70 nM | > 10000 nM | > 10000 nM | > 1000 nM | 302 nM | > 10000 nM | 209 nM | > 10000 nM
PANC-03-27 (Pancreatic Carcinoma) | > 10000 nM | 4600 nM | 7.87 nM | > 300 nM | > 10000 nM | 214 nM | > 10000 nM | > 1000 nM | > 10000 nM | > 1000 nM | 183 nM | 49.8 nM | > 1 nM | > 10000 nM | 2570 nM | > 20000 nM | > 10000 nM | > 1000 nM | 184 nM | 3080 nM | > 1000 nM | > 1000 nM | 3400 nM | > 3000 nM | > 10000 nM | > 10000 nM | > 10000 nM | 271 nM | > 10000 nM | > 10000 nM | > 1000 nM | > 1000 nM | > 10000 nM | 1760 nM | > 10000 nM
PSN1 (Pancreatic Carcinoma) | > 10000 nM | 5380 nM | > 1000 nM | > 300 nM | 7760 nM | 61.9 nM | > 10000 nM | > 1000 nM | > 10000 nM | > 1000 nM | 33.6 nM | 110 nM | > 1 nM | > 10000 nM | > 10000 nM | 7840 nM | > 10000 nM | > 1000 nM | 1630 nM | 193 nM | > 1000 nM | > 1000 nM | > 10000 nM | > 3000 nM | > 10000 nM | 8600 nM | 952 nM | 18.6 nM | > 10000 nM | > 10000 nM | > 1000 nM | > 1000 nM | > 10000 nM | 244 nM | > 10000 nM
RCM-1 (Colorectal Carcinoma) | > 10000 nM | 9940 nM | 23.2 nM | > 300 nM | > 10000 nM | > 3000 nM | > 10000 nM | > 1000 nM | > 10000 nM | > 1000 nM | > 300 nM | 35.4 nM | > 1 nM | > 10000 nM | 2610 nM | > 20000 nM | > 10000 nM | > 1000 nM | 1790 nM | 2150 nM | > 1000 nM | > 1000 nM | > 10000 nM | > 3000 nM | > 10000 nM | > 10000 nM | 2570 nM | 31.8 nM | > 10000 nM | > 10000 nM | > 1000 nM | 506 nM | > 10000 nM | > 2000 nM | > 10000 nM
REH (B-Lymphoblastic Leukemia) | 6850 nM | 3310 nM | 24.8 nM | > 300 nM | 4210 nM | 5.44 nM | 1620 nM | 94.9 nM | > 10000 nM | 211 nM | 15.6 nM | 4.21 nM | > 1 nM | > 10000 nM | 5790 nM | > 20000 nM | > 10000 nM | 218 nM | 727 nM | > 5000 nM | 56.4 nM | 723 nM | > 10000 nM | > 3000 nM | > 10000 nM | 834 nM | > 10000 nM | > 1000 nM | 4580 nM | 9640 nM | > 1000 nM | 834 nM | > 10000 nM | > 2000 nM | > 10000 nM
